Assays:
[1] = tested on: APP processing (F1-APP, pAPPThr668, CTFs, sAPPα, sAPPβ-sw) in N2a-SwedAPP cells; assay: Western blot of APP metabolic products in N2a-SwedAPP cells; format: cell-based, murine; set-up: key to Fl-APP (overall influence) / CTFs (overall influence) / sAPPα (overall influence) / sAPPβ (overall influence): ↓ decreased; ↑ increased; ? unchanged
Method: N2a-SwedAPP cells were obtained from Dr. Gopal Thinakaran (University of Chicago, Chicago, Ill., USA). N2a-SwedAPP cells were cultured in Dulbecco's modified Eagle's medium (DMEM) and OPTI-MEM medium in a 1:1 ratio with 5% FBS, 50 μg/mL penicillin, 50 μg/mL streptomycin and 200 μg/mL G418 as previously described in Thinakaran G, Teplow D B, Siman R, Greenberg B, Sisodia S S (1996) Metabolism of the “Swedish” amyloid precursor protein variant in neuro2a (N2a) cells. J Biol Chem 271: 9390-9397. N2a-SwedAPP cells were incubated at 37° C. in a 5% CO2/95% humidity incubator. Cells were seeded 24 hours prior to the treatments. When growth reached close to 90% of confluence, cells were transferred into DMEM with 1% FBS for loading extracts. The final concentration of DMSO in all experiments was 0.1%, and this concentration caused no cytotoxicity.
To detect the levels of APP metabolic products, the cell lysates and the conditioned media were prepared as described in Durairajan S S K, Liu L F, Lu J H, Koo I, Maruyama K, Chung S K, Huang J D, Li M. (2011) Stimulation of non-amyloidogenic processing of amyloid-β protein precursor by cryptotanshinone involves activation and translocation of ADAM10 and PKC-α. J Alzheimer's Dis 25: 245-262, with minor modification. N2a-SwedAPP cells were seeded at a density of 4×10^5/mL in DMEM medium in a 6-well plate and cultured for 1 day. After transfer, cells were treated with different doses of RC, CP, FG and RS for 48 hours, then the extracellular media were collected for detection of sAPPα and sAPPβ-sw, and cells were harvested to quantify F1-APP and β-actin by Western blot analysis, as described previously by Durairajan et al. For intracellular APP, APP-CTFs and Aβ preparation, cells were washed with ice-cold PBS twice and solubilized in ice-cold RIPA buffer with protease inhibitor cocktail added. Lysates were collected and centrifuged at 16,000×g for 15 minutes at 4° C. The resulting supernatants were collected, and their protein concentrations were determined with bicinchoninic acid (BCA) protein assay reagent (Thermo Scientific, IL, USA). For sAPPα and sAPPβ-sw detection, the conditioned media are collected and frozen in liquid nitrogen, subjected to lyophilization at −40° C. under vacuum of 105 μbar for 2 days in order to remove all liquid. The conditioned media were standardized to total cell lysate protein.
For Western blot analysis from cell culture or mouse brain, 10-30 μg total protein is separated on 10% and 15% SDS-PAGE gels and blotted onto PVDF membranes for the detection of full length APP (F1-APP), CTFs, sAPPα, sAPPβ-sw, 3-actin and phosphorylated APP (pAPPThr668). After blocking with 5% skimmed milk, the blots are incubated with primary antibodies overnight at 4° C. with shaking. Blots are washed and incubated with HRP-conjugated secondary antibodies. The goat anti-mouse IgG is used when the primary antibody is 6E10 (1:1000), sAPPβ-sw (1:100), or anti-β-actin (1:5000), and the goat anti-rabbit IgG is used when the primary antibody is anti-CT15 (1:5000) or pAPPThr668 (1:1000). After incubation with HRP-conjugated secondary antibody, immunoblots are treated with ECL and developed using X-ray films (Fujifilm). Films are scanned, and the band intensity is analyzed using Image J software (NIH Image).
Stripped CT15 and 6E10 probed membranes are reincubated with pAPPThr668 and sAPPβ-sw 6A1 antibodies, respectively.
Western blotting of N2a-SwedAPP cells is used to test differences in the processing of Swedish mutant APP by HLJDT components. Several antibodies are used in Western blot analysis: CT15 recognizes full length APP (F1-APP), 6E10 identifies only α-secretase-cleaved APP i.e sAPPα, and the sAPPβ-sw specific for β-secretase cleavage of Swedish mutant APP.

[2] = tested on: intracellular Aβ1-40 and Aβ1-42 in N2a-SwedAPP cells; assay: Sandwich ELISA of intracellular Aβ in N2a-SwedAPP cells; format: cell-based, murine; set-up: key to Aβs (overall influence): ↓ decreased; ↑ increased; ? unchanged
Method: N2a-SwedAPP cells were seeded at a density of 4×10^5/mL in DMEM medium in a 6-well plate and cultured for 1 day. After transfer, cells were treated with different doses of RC, CP, FG and RS for 48 hours, then the extracellular media were collected for detection of sAPPα and sAPPβ-sw, and cells were harvested to quantify F1-APP and β-actin by Western blot analysis, as described previously by Durairajan et al. For intracellular APP, APP-CTFs and Aβ preparation, cells were washed with ice-cold PBS twice and solubilized in ice-cold RIPA buffer with protease inhibitor cocktail added. Lysates were collected and centrifuged at 16,000×g for 15 minutes at 4° C. The resulting supernatants were collected, and their protein concentrations were determined with bicinchoninic acid (BCA) protein assay reagent (Thermo Scientific, IL, USA). […] The conditioned media were standardized to total cell lysate protein.
The levels of intracellular Aβ1-40 and Aβ1-42 are quantified by using a sandwich ELISA as previously described by Durairajan et al., 2011 with minor modification. Equal amounts of cell or brain lysates are used for Aβ quantification by sandwich ELISA. The monoclonal antibody 6E10 is used as the capture antibody by adding to ELISA plates (0.2 μg diluted in 0.1 M Na2CO3 (pH 9.6) per well) and incubated overnight at 4° C. The plates are washed with PBS (0.05% Tween 20) and blocked with 4% BlockAce (Serotec, Raleigh, N.C., USA) for 2 hours at room temperature. Equilibrated protein lysates from each treatment (a 100 μL volume is adjusted in all treatment groups by using PBS) are applied in duplicate and incubated at room temperature for 2 hours with constant rotation at 30 rpm. Biotinylated monoclonal anti-Aβ40 5C3 (50 ng per well) and biotinylated monoclonal 8G7 (50 ng per well) antibodies are used for detection of Aβ1-40 and Aβ1-42, respectively, and are diluted in 1% BlockAce and incubated for 2 hours at room temperature. Plates are thoroughly washed with PBS (0.05% Tween 20), and streptavidin conjugated HRP is added for 1 hour at room temperature. Finally the plates are washed four times with PBST before adding the substrate TMB for 30 minutes. Absorbance at 450 nm is measured in duplicate wells after addition of 2 M H2SO4. All ELISA experimental data are from three different days. Synthetic Aβ40 and Aβ42 peptides are used for construction of calibration curves, and Aβ is measured in lysates.

[3] = tested on: TgCRND8 mice; assay: Tolerability of chronic oral administration in TgCRND8 mice; format: in vivo; conditions: 25 mg/kg per day, nearly 3 months
Description: All animal handling experiments were approved by the Hong Kong Baptist University Committee on the Use of Human and Animal Subjects in Teaching and Research (HASC, approval #: 12-13/0030). TgCRND8 mice expressing human APP with Swedish (K670N/M671L) and Indiana (V717F) mutations were used to evaluate the effect of baicalein on Aβ. Heterozygous TgCRND8 mice on a C57BL/6J background were used to breed a colony of experimental animals. The TgCRND8 mouse is an early onset model of AD with visible Aβ deposits in the brains of the animals starting from 3 months of age as described in Chishti M A, Yang D S, Janus C, Phinney A L, Home P, Pearson J, Strome R, Zuker N, Loukides J, French J, Turner S, Lozza G, Grilli M, Kunicki S, Morissette C, Paquette J, Gervais F, Bergeron C, Fraser P E, Carlson G A, George-Hyslop P S, Westaway D. (2001) Early-onset amyloid deposition and cognitive deficits in transgenic mice expressing a double mutant form of amyloid precursor protein 695. J Biol Chem 276: 21562-21570. The animals are housed in a controlled environment under a 12/12 hours light/dark cycle. They are allowed free access to food and water. The oral administration of baicalein (25 mg/kg/d) is commenced at 2 months of age and ended at 5 months before being killed. […]

[4] = Baicalein concentration in brain of TgCRND8 mice; format: in vivo
[5] = rat, in vivo; cited from earlier work

O=c1cc(-c2ccccc2)oc2cc(O)c(O)c(O)c12 [baicalein]
maximal increase of CTFs, fold of basal release ([1]; 12.5 μM, 48 hours): 2.36 fold
maximal increase of F1-APP, fold of basal release ([1]; 12.5 μM, 48 hours): 1.68 fold
maximal increase of pAPPThr668, fold of basal release ([1]; 12.5 μM, 48 hours): 1.58 fold
maximal secretion of sAPPα, fold of basal release ([1]; 12.5 μM, 48 hours): 2.65 fold
maximal secretion of sAPPβ-sw, fold of basal release ([1]; 12.5 μM, 48 hours): 1.70 fold
CTFs (overall influence) ([1]; N2a-SwedAPP cells): ↑
Fl-APP (overall influence) ([1]; N2a-SwedAPP cells): ↑
sAPPα (overall influence) ([1]; N2a-SwedAPP cells): ↑
sAPPβ (overall influence) ([1]; N2a-SwedAPP cells): ↑
augmentation of intracellular Aβ1-40, fold of basal level ([2]; 12.5 μM, 48 h): 1.23 fold
augmentation of intracellular Aβ1-42, fold of basal level ([2]; 12.5 μM, 48 h): 1.38 fold
Aβs (overall influence) ([2]; N2a-SwedAPP cells): ↑
adverse side effects [3]: nor did it cause any notable adverse side effects
change of animal body weight [3]: did not significantly change
mean concentration of baicalein in the brain ([4]; TgCRND8 mice, orally administered 25 mg/kg): 0.12 ± 0.01 µg/mL
difference in baicalein levels in the brain between doses ([4]; mouse, in vivo): no difference
brain bioavailability of baicalein (greater than berberine) [5]: 1 to 10 µM

— US9375457B2, “Composition comprising Rhizoma coptidis, Cortex phellodendri and Fructus gardeniae and for treating neurodegenerative diseases” (Hong Kong Baptist University, priority 2013, dated 2016)
